The experiment has as its system collagen type I. Briefly: Collagen type I production by fibroblasts (competitive ELISA). The conditions noted are these: vs non-treated cells. The class given is cell-based, human. On the procedure:
The potential of said peptide Ac-SEQ ID NO: 8-NH2 to modulate the production of collagen type I as a potential improver of skin firming was evaluated in vitro using human skin fibroblasts.
Cell were seeded in 96-well plates at 1×10^4 cells/well and maintained for 24 h at standard culture conditions (37° C., 95% humidity, 5% CO2). After 24 h incubation, medium was removed and new medium containing the peptide Ac-SEQ ID NO: 8-NH2 at 0.01, 0.05 or 0.1 mg/mL was added to the wells concentration. Treatment lasted 24 hours or 48 hours and at the end of the assay cell culture media were collected. Cells treated only with culture medium were used as basal control (non-treated cells).
After 24 and 48 hours of treatment the amount of collagen type I produced and released by the cells (ex-novo collagen type I synthesis) was measured in cell culture medium by means of ELISA assay. The results of the test item were compared to basal control condition (non-treated cells). The treatments were performed in triplicate in three different experimental sessions.
The determination of collagen type I synthesis was carried out by means of a competitive ELISA method. Samples were added to enzyme wells which were pre-coated with antibodies, then the recognition antigen labeled with Horseradish peroxidase (HRP) was added; after being incubated 1 hour at 37° C., both compete with solid phase antigen and form immune complex. After washing with phosphate buffer solution, the combined HRP catalyzes Tetramethylbenzidine (TMB) into blue, and turns into yellow by the action of acid; it has an absorption peak under 450 nm wavelength and its absorbance is negatively correlated with antigen density of sample. The plates were read by microplate reader.
The quantitative determination uses a calibration curve made-up of known and growing concentrations of standard collagen type 1. The results are expressed as collagen type I concentration (μg/ml) in 50 μL cell culture medium.
Three trials were performed for each determination in three different experimental sessions. The % variation in collagen type I content between negative controls and samples was calculated and a direct index of the efficacy of the peptide to increase collagen I synthesis was obtained.

Consider “Ac-His-Ala-Leu-Arg-Phe-Trp-NH2 [Ac-SEQ ID NO: 8-NH2]”, for which the “increase of collagen type I production” value (0.01 mg/mL, 24 h) is recorded as 9%; the “increase of collagen type I production” value (0.01 mg/mL, 48 h) is on record as 16%; the “increase of collagen type I production” value (0.05 mg/mL, 24 h) was found to be 31%; the “increase of collagen type I production” value (0.05 mg/mL, 48 h) was 29.5%; the “increase of collagen type I production” value (0.1 mg/mL, 24 h) is given as 37.5%; the “increase of collagen type I production” value (0.1 mg/mL, 48 h) was determined as 56.5%.

Source of the values: US11634458B2, “Peptides and compositions for use in cosmetics and medicine” (LIPOTRUE, S.L., priority 2018, dated 2023).
